According to patent EP2949653A1, “ISOXAZOLE DERIVATIVES AS LEUKOTRIENE BIOSYNTHESIS INHIBITORS” (Banoglu, Erden, priority 2014, dated 2015):

Target: T1, 5-LO (Homo sapiens, UniProt P09917)
T1 sequence (P09917 1-674): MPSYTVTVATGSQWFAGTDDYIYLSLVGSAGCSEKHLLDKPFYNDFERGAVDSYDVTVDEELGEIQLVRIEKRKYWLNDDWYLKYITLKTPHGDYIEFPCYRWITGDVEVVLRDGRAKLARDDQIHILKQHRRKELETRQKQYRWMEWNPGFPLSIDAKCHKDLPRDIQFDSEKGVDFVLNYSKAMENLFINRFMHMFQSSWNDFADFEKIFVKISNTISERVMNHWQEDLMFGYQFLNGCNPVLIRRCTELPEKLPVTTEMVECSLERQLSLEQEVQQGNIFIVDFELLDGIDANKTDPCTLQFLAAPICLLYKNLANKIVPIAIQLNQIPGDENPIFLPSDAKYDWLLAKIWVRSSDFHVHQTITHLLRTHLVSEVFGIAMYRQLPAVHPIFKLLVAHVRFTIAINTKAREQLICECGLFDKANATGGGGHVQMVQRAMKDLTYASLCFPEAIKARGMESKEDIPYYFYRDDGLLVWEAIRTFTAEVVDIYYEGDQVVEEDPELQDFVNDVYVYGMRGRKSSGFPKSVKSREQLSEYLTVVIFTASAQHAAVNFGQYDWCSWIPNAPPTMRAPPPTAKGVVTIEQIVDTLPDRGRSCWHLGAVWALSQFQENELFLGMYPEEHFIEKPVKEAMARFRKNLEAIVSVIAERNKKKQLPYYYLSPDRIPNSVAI
Assay: 5-LO mediated product formation in neutrophil homogenates (reducing conditions)
Type: biochemical
Design: endogenous in cells; host or cells: neutrophil homogenates
Conditions: with or without GSH (1 mM), 20 µM AA (Figure 6)
Method: Cell based and cell-free assays carried out in biological studies, immunofluorescence microscopy analysis and zymosan-induced peritonitis in mice are performed as described hereinabove (Pegola, C. and et al., British J. Pharmacology, 2014, D01:10.1111/bph.12625). In the cell based assays (intact neutrophils or monocytes), 5-LO mediated product formation is started, after pre-incubation with test compounds (or control DMSO) for 15 min. at 37 °C, with addition of Ca-ionophore A23187 (2.5 µM) to the fresh 5 x 10^6 neutrophils or monocytes suspended in 1 ml of PGC buffer (phosphate buffered saline (PBS) solution containing 1 mg ml^-1 glucose and 1mM CaCl2, pH 7.4). After the incubation for 10 min. at 37 °C, the reaction is ended with addition of 1 ml of methanol, and 30 µL 1 N HCl, 200 ng prostaglandin B1 and 500 µL PBS are added to the mixture. […] Resulting 5-LO mediated products are extracted and analysed by the known method of high pressure liquid chromatography (HPLC) (Pergola, C. Proc Natl. Acad. Sci. U.S.A. 2008, 105, 19881). 5-LO mediated product formation (LTB4 and all trans isomers, and 5 (S)-hydro(pero)xy-6-trans-8, 11, 14-cis-eicosatetraenoic acid, 5-H(p)ETE) is expressed as ng per 10^6 cell. Cysteinyl-LTs have not been analyzed because that the amount of C4, D4 and E4 and LTB4 oxidation products are below the detection limit. […]

`O=C(O)c1noc(-c2ccc(OCc3ccc4ccccc4n3)cc2)c1-c1ccc(Cl)cc1` [Compound 9hj, 4-(4-Chlorophenyl)-5-(4-(quinolin-2-ylmethoxy)phenyl)isoxazole-3-carboxylic acid] showed an IC50 of 1000 nM.
